Reference: the supplement of paper PMC11208160
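Note: IS621 bridge recombinase in Escherichia coli cells against a fixed T5 target plasmid.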

Assay: recombinant UMI read abundance after kanamycin selection (control-corrected) (log10(CPM+1)); higher = more efficient recombination; extreme values may be limits of the assay; sequences stand for … in AGTGCAGAGAAAATCGGCCAGTTTTCTCTGCCTGCAGTCCGCATGCCGTGGGACCCCTTGGGTTCTAACCTGTTGCCTAGATTTATGCAGCGGACTGCCTTTCTCCCAAAGTGATAAACCGG…AGGTTGGTTTCACT; site = the 11-nt donor
How it was run: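 In Escherichia coli, a pool of donor and donor-binding-loop pairs, each with a 12-nt UMI, was tested for the IS621 bridge recombinase. Plating was on IPTG (0.07 mM) plus kanamycin, or without selection, in two replicates. Recombinant UMIs were amplified by PCR across the donor–target junction and sequenced, and counts were reported as log10(CPM+1) after averaging and control-derived scaling.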
With “GCAATACCATGGACCGGTTTTCCCGGTAATCCGTATTTGTG (site GCAATACCTCA)” the “recombinant UMI read abundance (log10)” value was 0.00804.
With “GCGAATACATGGACCGGTTTTCCCGGTAATCCGTATTTGCT (site GCGAATACTAG)” the “recombinant UMI read abundance (log10)” value was 0.
In the case of “GCGAAGCCATGGACCGGTTTTCCCGGTAATCCGTATTTGCG (site GCGAAGCCTCT)”, the “recombinant UMI read abundance (log10)” value is reported as 0.455.
With “GTGGAGACATGGACCGGTTTTCCCGGTAATCCGTATTTGTG (site GTGGAGCCTCA)” the “recombinant UMI read abundance (log10)” value was 0.0116.
In the case of “GGTACGTCATGGACCGGTTTTCCCGGTAATCCGTATTTGTT (site GATACGTCTAA)”, the “recombinant UMI read abundance (log10)” value is reported as 0.00543.
For “AATCCTCCATGGACCGGTTTTCCCGGTAATCCGTATTTGGA (site AATCCTCCTTC)”, the “recombinant UMI read abundance (log10)” value was 0.
With “TGACCTCCATGGACCGGTTTTCCCGGTAATCCGTATTTGAA (site TGACCTCCTTT)” the “recombinant UMI read abundance (log10)” value was 0.019.
In the case of “AGGAAGACATGGACCGGTTTTCCCGGTAATCCGTATTTGTA (site AGGAAGACTTT)”, the “recombinant UMI read abundance (log10)” value is reported as 1.8.
For “GCAGGTGCATGGACCGGTTTTCCCGGTAATCCGTATTTGAT (site GCAGGTGCTAT)”, the “recombinant UMI read abundance (log10)” value was 2.1.
For “CCCATCTCATGGACCGGTTTTCCCGGTAATCCGTATTTGGG (site CCCTTCTCTCC)”, the “recombinant UMI read abundance (log10)” value was 0.0111.
For “ACAGTTTCATGGACCGGTTTTCCCGGTAATCCGTATTTGCA (site ACAGTTTCTTG)”, the “recombinant UMI read abundance (log10)” value was 2.24.
With “ATGCTTCCATGGACCGGTTTTCCCGGTAATCCGTATTTGCA (site ATGCTTCCTTG)” the “recombinant UMI read abundance (log10)” value was 1.47.
In the case of “TAGGCTTCATGGACCGGTTTTCCCGGTAATCCGTATTTGGT (site TAGCCTTCTAC)”, the “recombinant UMI read abundance (log10)” value is reported as 0.0146.
With “GGTCCAACATGGACCGGTTTTCCCGGTAATCCGTATTTGTC (site GGTCCAACTGA)” the “recombinant UMI read abundance (log10)” value was 0.
In the case of “TAATGAGCATGGACCGGTTTTCCCGGTAATCCGTATTTGTG (site TAATGAGCTCC)”, the “recombinant UMI read abundance (log10)” value is reported as 0.00287.
With “TCTATAACATGGACCGGTTTTCCCGGTAATCCGTATTTGCT (site TCTATAACTAG)” the “recombinant UMI read abundance (log10)” value was 0.
In the case of “GTCGACCCATGGACCGGTTTTCCCGGTAATCCGTATTTGAG (site GTCGACCCTCT)”, the “recombinant UMI read abundance (log10)” value is reported as 0.0157.
With “CACTTGGCATGGACCGGTTTTCCCGGTAATCCGTATTTGGA (site CACTAGGCTTC)” the “recombinant UMI read abundance (log10)” value was 0.104.
In the case of “CCCTTCTCATGGACCGGTTTTCCCGGTAATCCGTATTTGGA (site CCCTTCTCTGC)”, the “recombinant UMI read abundance (log10)” value is reported as 0.
In the case of “GTTGTTCCATGGACCGGTTTTCCCGGTAATCCGTATTTGCT (site GTTGTTCCTAT)”, the “recombinant UMI read abundance (log10)” value is reported as 0.00476.
For “CGTTCCCCATGGACCGGTTTTCCCGGTAATCCGTATTTGTA (site TGTTCCCCTTA)”, the “recombinant UMI read abundance (log10)” value was 0.00473.
In the case of “CGCAATCCATGGACCGGTTTTCCCGGTAATCCGTATTTGAA (site GGCAATCCTTT)”, the “recombinant UMI read abundance (log10)” value is reported as 0.00324.
With “CGGACATCATGGACCGGTTTTCCCGGTAATCCGTATTTGCT (site CGTACATCTAG)” the “recombinant UMI read abundance (log10)” value was 1.54.
With “CGAGAACCATGGACCGGTTTTCCCGGTAATCCGTATTTGAT (site CGGGAACCTAT)” the “recombinant UMI read abundance (log10)” value was 0.
In the case of “AGGTTCCCATGGACCGGTTTTCCCGGTAATCCGTATTTGTT (site AGGTTCCCTCA)”, the “recombinant UMI read abundance (log10)” value is reported as 0.0252.
With “GTTAGAACATGGACCGGTTTTCCCGGTAATCCGTATTTGTC (site GTTAGAACTGT)” the “recombinant UMI read abundance (log10)” value was 0.013.
For “TATGCACCATGGACCGGTTTTCCCGGTAATCCGTATTTGGT (site TATGCACCTAC)”, the “recombinant UMI read abundance (log10)” value was 0.0323.
With “ATTGAGTCATGGACCGGTTTTCCCGGTAATCCGTATTTGGT (site ATTGAGACTAC)” the “recombinant UMI read abundance (log10)” value was 0.0845.
In the case of “CACTTGGCATGGACCGGTTTTCCCGGTAATCCGTATTTGGA (site CACTTGGCTCC)”, the “recombinant UMI read abundance (log10)” value is reported as 0.381.
For “CCGTTAGCATGGACCGGTTTTCCCGGTAATCCGTATTTGTG (site CCTTTAGCTCA)”, the “recombinant UMI read abundance (log10)” value was 0.015.
For “TGGCCTTCATGGACCGGTTTTCCCGGTAATCCGTATTTGGT (site TGGCCTTCTAC)”, the “recombinant UMI read abundance (log10)” value was 0.00327.
For “CGAGCGACATGGACCGGTTTTCCCGGTAATCCGTATTTGTT (site CGATCGACTAA)”, the “recombinant UMI read abundance (log10)” value was 0.0192.
For “GTAGGTACATGGACCGGTTTTCCCGGTAATCCGTATTTGAC (site GTAGGAACTGT)”, the “recombinant UMI read abundance (log10)” value was 1.59.
For “AGGAAGACATGGACCGGTTTTCCCGGTAATCCGTATTTGCA (site AGGAAGACTCG)”, the “recombinant UMI read abundance (log10)” value was 0.784.
With “CTGGTATCATGGACCGGTTTTCCCGGTAATCCGTATTTGAA (site CTAGTATCTGT)” the “recombinant UMI read abundance (log10)” value was 2.25.
In the case of “CACCGTTCATGGACCGGTTTTCCCGGTAATCCGTATTTGTG (site CACCGTTCTCA)”, the “recombinant UMI read abundance (log10)” value is reported as 1.9.
With “CTCACTACATGGACCGGTTTTCCCGGTAATCCGTATTTGAG (site CTCACTACTCT)” the “recombinant UMI read abundance (log10)” value was 0.232.
